Measured values from patent publication US11083717B2, “Compositions and methods for drug sensitization of parasites” (The Texas A&M University System, priority 2015, dated 2021).
Read-outs that look alike come from different tables or passages of the source.

How the values were obtained:
[1] = system: S. cerevisiae; experiment: in vitro; conditions: Saccharomyces cerevisiae
Excerpt: (§1) These tests included an IL-12 mouse model test to determine compound efficacy, verification of MIC50 for CP, cytotoxicity test for fibroblasts and yeast to determine potential toxic effects, a Human ether-a-go-go-related gene (hERG) test to determine potential cardiotoxicity, an AMES test tp determine mutagenic potential, a Safety Screen 44 test to determine common negative off-target drug interastion (Eurofins Cerep, SA, France), a cytochrome P450 (CYP) test to determine potential liver toxicity, a maximum tolerated dose, test, a Pharmacokinetics (PK) test to determine fate of the substance administered to a living organism tests for plasma stability in human and mouse, to measure the degradation of compound in plasma MClint and HClint test to determine in vitro intrinsic clearance for Mouse and Human, and kinetic solubility and plasma protein binding tests in mouse and human.

[2] = system: human fibroblast; experiment: in vitro
Excerpt: as §1

## CONC(=O)C(OC)c1ccc(Oc2nc3ccc(Cl)cc3s2)cc1 (stereo not drawn) [NZ-357, 2-{4-[(6-chloro-1,3-benzothiazol-2-yl)oxy]phenyl}-N,2-dimethoxyacetamide]
[1]
  concentrations at which not toxic, S. cerevisiae cytotoxicity testing: ≥ 100 µM

## COC(=O)COc1ccc(Oc2nc3ccc(F)cc3s2)cc1 [NZ-303, methyl 2-{4-[(6-fluoro-1,3-benzothiazol-2-yl)oxy]phenoxy}acetate]
[2]; human
  concentrations at which not toxic, human fibroblast cytotoxicity testing: ≥ 100 µM

## CONC(=O)C(O)c1ccc(Oc2nc3ccc(Cl)cc3s2)cc1 (stereo not drawn) [NZ-338, 2-{4-[(6-chloro-1,3-benzothiazol-2-yl)oxy]phenyl}-2-hydroxy-N-methoxyacetamide]
[2]; human
  concentrations at which not toxic, human fibroblast cytotoxicity testing: ≥ 100 µM

## CN(C)C(=O)Nc1ccc(Oc2nc3ccc(Cl)cc3s2)cc1 [NZ-354, 1-{4-[(6-chloro-1,3-benzothiazol-2-yl)oxy]phenyl}-3,3-dimethylurea]
[1]
  concentrations at which not toxic, S. cerevisiae cytotoxicity testing: 50 to 100 µM

## COC(=O)C(C)(C)Oc1ccc(Oc2cnc3cc(Cl)ccc3n2)cc1 [NZ-314, methyl 2-{4-[(6-chloroquinoxalin-2-yl)oxy]phenoxy}-2-methylpropanoate]
[1]
  concentrations at which not toxic, S. cerevisiae cytotoxicity testing: ≥ 100 µM
[2]; human
  concentrations at which not toxic, human fibroblast cytotoxicity testing: ≥ 100 µM

## CNC(=O)Cc1ccc(Oc2nc3ccc(F)cc3s2)cc1 [NZ-385, 2-{4-[(6-fluoro-1,3-benzothiazol-2-yl)oxy]phenyl}-N-methylacetamide]
[1]
  concentrations at which not toxic, S. cerevisiae cytotoxicity testing: ≥ 100 µM
[2]
  concentrations at which not toxic, human fibroblast cytotoxicity testing: ≥ 100 µM

## CC(C)NC(=O)Nc1ccc(Oc2nc3ccc(Br)cc3s2)cc1 [NZ-359, 1-{4-[(6-bromo-1,3-benzothiazol-2-yl)oxy]phenyl}-3-(propan-2-yl)urea]
[1]
  concentrations at which not toxic, S. cerevisiae cytotoxicity testing: ≥ 100 µM

## CC(C)NC(=O)Nc1ccc(Oc2nc3ccc(Cl)cc3s2)c[n+]1[O-] [NZ-391, 1-{5-[(6-chloro-1,3-benzothiazol-2-yl)oxy]-1-oxo-1λ^5-pyridin-2-yl}-3-(propan-2-yl)urea]
[1]
  concentrations at which not toxic, S. cerevisiae cytotoxicity testing: ≥ 100 µM
[2]; human
  concentrations at which not toxic, human fibroblast cytotoxicity testing: ≥ 100 µM

## Cc1ccc2nc(Oc3ccc(NC(=O)NC(C)C)cc3)sc2c1 [NZ-358, 1-{4-[(6-methyl-1,3-benzothiazol-2-yl)oxy]phenyl}-3-(propan-2-yl)urea]
[1]
  concentrations at which not toxic, S. cerevisiae cytotoxicity testing: ≥ 100 µM

## NCCC(=O)Nc1ccc(Oc2nc3ccc(F)cc3s2)cc1 [NZ-416, 3-amino-N-{4-[(6-fluoro-1,3-benzothiazol-2-yl)oxy]phenyl}propanamide]
[1]
  concentrations at which not toxic, S. cerevisiae cytotoxicity testing: ≥ 100 µM
[2]; human
  concentrations at which not toxic, human fibroblast cytotoxicity testing: ≥ 100 µM

## O=C(O)Cc1ccc(Oc2nc3ccc(F)cc3s2)cc1 [NZ-299, 2-{4-[(6-fluoro-1,3-benzothiazol-2-yl)oxy]phenyl}acetic acid]
[1]
  concentrations at which not toxic, S. cerevisiae cytotoxicity testing: ≥ 100 µM
[2]
  concentrations at which not toxic, human fibroblast cytotoxicity testing: ≥ 100 µM

## CONC(=O)C(C)c1ccc(Oc2nc3ccc(OC)cc3s2)cc1 (stereo not drawn) [NZ-335, N-methoxy-2-{4-[(6-methoxy-1,3-benzothiazol-2-yl)oxy]phenyl}propanamide]
[1]
  concentrations at which not toxic, S. cerevisiae cytotoxicity testing: ≥ 100 µM
[2]; human
  concentrations at which not toxic, human fibroblast cytotoxicity testing: ≥ 100 µM

## CC(C(=O)N1CCN(C(C)C)CC1)c1ccc(Oc2nc3ccc(Cl)cc3s2)cc1 (stereo not drawn) [NZ-510, 2-{4-[(6-chloro-1,3-benzothiazol-2-yl)oxy]phenyl}-1-[4-(propan-2-yl]piperazin-1-yl]propan-1-one]
[1]
  concentrations at which not toxic, S. cerevisiae cytotoxicity testing: ≥ 100 µM
[2]; human
  concentrations at which not toxic, human fibroblast cytotoxicity testing: ≥ 100 µM

## CONC(=O)COc1ccc(Oc2nc3ccc(F)cc3s2)cc1 [NZ-305, 2-{4-[(6-fluoro-1,3-benzothiazol-2-yl)oxy]phenoxy}-N-methoxyacetamide]
[1]
  concentrations at which not toxic, S. cerevisiae cytotoxicity testing: ≥ 100 µM
[2]; human
  concentrations at which not toxic, human fibroblast cytotoxicity testing: ≥ 100 µM

## CC(C)NC(=O)Nc1ccc(Oc2nc3cc(F)c(F)cc3s2)cc1 [NZ-382, 1-{4-[(5,6-difluoro-1,3-benzothiazol-2-yl)oxy]phenyl}-3-(propan-2-yl)urea]
[1]
  concentrations at which not toxic, S. cerevisiae cytotoxicity testing: 50 to 100 µM
[2]; human
  concentrations at which not toxic, human fibroblast cytotoxicity testing: ≥ 100 µM

## CONC(=O)Cc1ccc(Oc2nc3ccc(Cl)cc3s2)cc1 [NZ-293, 2-{4-[(6-chloro-1,3-benzothiazol-2-yl)oxy]phenyl}-N-methoxyacetamide]
[1]
  concentrations at which not toxic, S. cerevisiae cytotoxicity testing: ≥ 100 µM
[2]; human
  concentrations at which not toxic, human fibroblast cytotoxicity testing: ≥ 100 µM

## COc1ccc2nc(Oc3ccc(NC(=O)NC(C)C)cc3)sc2c1 [NZ-361, 1-{4-[(6-methoxy-1,3-benzathiazol-2-yl)oxy]phenyl}-3-(propan-2-yl)urea]
[1]
  concentrations at which not toxic, S. cerevisiae cytotoxicity testing: ≥ 100 µM
[2]; human
  concentrations at which not toxic, human fibroblast cytotoxicity testing: ≥ 100 µM

## CC(C)NC(=O)Nc1ccc(Oc2nc3cc(Cl)ccc3s2)cc1 [NZ-376, 1-{4-[(5-chloro-1,3-benzothiazol-2-yl)oxy]phenyl}-3-(propan-2-yl)urea]
[1]
  concentrations at which not toxic, S. cerevisiae cytotoxicity testing: ≥ 100 µM
[2]
  concentrations at which not toxic, human fibroblast cytotoxicity testing: ≥ 100 µM

## CC(C(=O)O)c1ccc(Oc2cnc3cc(Cl)ccc3n2)cc1 (stereo not drawn) [NZ-309, 2-{4-[(6-chloroquinoxalin-2-yl)oxy]phenyl}propanoic acid]
[1]
  concentrations at which not toxic, S. cerevisiae cytotoxicity testing: ≥ 100 µM
[2]; human
  concentrations at which not toxic, human fibroblast cytotoxicity testing: ≥ 100 µM

## NCc1ccc(Oc2nc3ccc(Cl)cc3s2)cc1 [NZ-348, {4-[(6-chloro-1,3-benzothiazol-2-yl)oxy]phenyl}methanamine]
[1]
  concentrations at which not toxic, S. cerevisiae cytotoxicity testing: 25 to 50 µM

## CON(C)C(=O)COc1ccc(Oc2cnc3cc(Cl)ccc3n2)cc1 [NZ-290, 2-{4-[(6-chloroquinoxalin-2-yl)oxy]phenoxy}-N-methoxy-N-methylacetamide]
[1]
  concentrations at which not toxic, S. cerevisiae cytotoxicity testing: ≥ 100 µM
[2]
  concentrations at which not toxic, human fibroblast cytotoxicity testing: ≥ 100 µM

## C[C@@H](Oc1ccc(Oc2nc3ccc(Cl)cc3o2)cc1)C(=O)O [fenoxaprop-p, (R)-2-[4-(6-chlorobenzoxazol-2-yloxy)phenoxy]propionic acid, reference compound]
[2]
  concentrations at which not toxic, human fibroblast cytotoxicity testing: ≥ 100 µM

## COC(=O)Cn1ccc(Oc2nc3ccc(Cl)cc3s2)cc1=O [NZ-396, methyl 2-{4-[(6-chloro-1,3-benzothiazol-2-yl)oxy]-2-oxo-1,2-dihydropyridin-1-yl}acetate]
[1]
  concentrations at which not toxic, S. cerevisiae cytotoxicity testing: ≥ 100 µM
[2]; human
  concentrations at which not toxic, human fibroblast cytotoxicity testing: ≥ 100 µM

## CONC(=O)c1cc2ccc(Oc3ccccc3)cc2oc1=O [NZ-320, N-methoxy-2-oxo-7-phenoxy-2H-chromene-3-carboxamide]
[1]
  concentrations at which not toxic, S. cerevisiae cytotoxicity testing: ≥ 100 µM
[2]; human
  concentrations at which not toxic, human fibroblast cytotoxicity testing: ≥ 100 µM

## CONC(=O)C(C)(C)Oc1ccc(Oc2cnc3cc(Cl)ccc3n2)cc1 [NZ-316, 2-{4-[(6-chloroquinoxalin-2-yl)oxy]phenoxy}-N-methoxy-2-methylpropanamide]
[1]
  concentrations at which not toxic, S. cerevisiae cytotoxicity testing: ≥ 100 µM
[2]; human
  concentrations at which not toxic, human fibroblast cytotoxicity testing: ≥ 100 µM

## CN(C)C(=O)Nc1ccc(Oc2cnc3cc(Cl)ccc3n2)cc1 [NZ-343, 1-{4-[(6-chloroquinoxalin-2-yl)oxy]phenyl}-3,3-dimethylurea]
[2]; human
  concentrations at which not toxic, human fibroblast cytotoxicity testing: ≥ 100 µM

## CC(C)NC(=O)Nc1ccc(Oc2ccc3cc(Cl)ccc3n2)cc1 [NZ-346, 1-{4-[(6-chloroquinolin-2-yl)oxy]phenyl}-3-(propan-2-yl)urea]
[2]
  concentrations at which not toxic, human fibroblast cytotoxicity testing: ≥ 100 µM

## CNC(=O)NCc1ccc(Oc2nc3ccc(Cl)cc3s2)cc1 [NZ-350, 1-({4-[(6-chloro-1,3-benzothiazol-2-yl)oxy]phenyl}methyl)-3-methylurea]
[1]
  concentrations at which not toxic, S. cerevisiae cytotoxicity testing: ≥ 100 µM

## COC(=O)C(OC)c1ccc(Oc2nc3ccc(Cl)cc3s2)cc1 (stereo not drawn) [NZ-355, methyl 2-{4-[(6-chloro-1,3-benzothiazol-2-yl)oxy]phenyl}-2-methoxyacetate]
[1]
  concentrations at which not toxic, S. cerevisiae cytotoxicity testing: ≥ 100 µM

## CNC(=O)Nc1ccc(Oc2nc3ccc(Cl)cc3s2)cc1 [NZ-353, 1-{4-[(6-chloro-1,3-benzothiazol-2-yl)oxy]phenyl}-3-methylurea]
[1]
  concentrations at which not toxic, S. cerevisiae cytotoxicity testing: ≥ 100 µM

## CN(C)C(=O)NCc1ccc(Oc2nc3ccc(Cl)cc3s2)cc1 [NZ-349, 1-({4-[(6-chloro-1,3-benzothiazol-2-yl)oxy]phenyl}methyl)-3,3-dimethylurea]
[1]
  concentrations at which not toxic, S. cerevisiae cytotoxicity testing: ≥ 100 µM

## CCOC(=O)[C@@H](C)Oc1ccc(Oc2nc3ccc(Cl)cc3o2)cc1 [fenoxaprop-p-ethyl, ethyl (2R)-2-{4-[(6-chloro-1,3-benzoxazol-2-yl)oxy]phenoxy}propanoate, reference compound]
[2]; human
  concentrations at which not toxic, human fibroblast cytotoxicity testing: ≥ 100 µM

## CC(C)NC(=O)Nc1ccc(Oc2cnc3cc(F)ccc3n2)cc1 [NZ-345, 1-{4-[(6-fluoroquinoxalin-2-yl)oxy]phenyl}-3-(propan-2-yl)urea]
[2]
  concentrations at which not toxic, human fibroblast cytotoxicity testing: ≥ 100 µM

## CC(C)NC(=O)Nc1ccc(Oc2nc3ccccc3s2)cc1 [NZ-360, 1-{4-(1,3-benzothiazol-2-yloxy)phenyl]-3-(propan-2-yl)urea]
[1]
  concentrations at which not toxic, S. cerevisiae cytotoxicity testing: ≥ 100 µM

## CC(C)(C)OC(=O)Nc1ccc(Oc2nc3ccc(Cl)cc3s2)cc1 [NZ-351, tert-butyl N-{4-[(6-chloro-1,3-benzothiazol-2-yl)oxy]phenyl}carbamate]
[1]
  concentrations at which not toxic, S. cerevisiae cytotoxicity testing: ≥ 100 µM

## Nc1ccc(Oc2nc3ccc(Cl)cc3s2)cc1 [NZ-352, 4-[(6-chloro-1,3-benzothiazol-2-yl)oxy]aniline]
[1]
  concentrations at which not toxic, S. cerevisiae cytotoxicity testing: 25 to 50 µM

## COC(C(=O)O)c1ccc(Oc2nc3ccc(Cl)cc3s2)cc1 (stereo not drawn) [NZ-356]
[1]
  concentrations at which not toxic, S. cerevisiae cytotoxicity testing: ≥ 100 µM
